According to BindingDB's records for doi:10.1021/jm011053+ (Institut De Chimie Pharmaceutique Albert Lespagnol, 2002):

Assay: Inhibition of 2-[125I]iodomelatonin binding to Melatonin receptor 3 (MT3) of Syrian hamster brain membrane

| Ki [nM] | SMILES |
| --- | --- |
| 2.8 | COc1ccc2c(c1)c(CCNC(C)=O)cn2C [N-[2-(5-Methoxy-1-methyl-1H-indol-3-yl)-ethyl]-acetamide] |
| 0.31 | COc1ccc2c(c(CCNC(C)=O)cn2C)c1[N+](=O)[O-] [N-[2-(5-Methoxy-1-methyl-4-nitro-1H-indol-3-yl)-ethyl]-acetamide] |
| 1.1 | COc1ccc2[nH]cc(CCNC(C)=O)c2c1[N+](=O)[O-] [N-(2-(5-methoxy-4-nitro-1H-indol-3-yl)ethyl)acetamide] |
